How the values were obtained:
[1] = system: K. pneumoniae ATCC BAA-2470 (NDM-1); assay: In vitro synergistic inhibitory concentration (SIC) assay; type: cell-based; conditions: Klebsiella pneumoniae, ATCCBAA2470, 37° C. 20 hours, read-out: minimum inhibitory concentration, used alone
Method: (§1) 2) 30 μL dimethyl sulfoxide was added to columns 2-12 of the 96-V well plate. 60 μL prepared ceftazidime was added to column 1. 30 μL ceftazidime was transferred from column 1 to column 2 and mixed with a pipette. The same operation was continued until column 11, and 30 μL of the mixture in column 11 was discarded. This was the compound mother plate.
(§2) Mix the liquid in the mother plate with a pipette.
(§3) 4) One day before the experiment, the bacterial glycerol stock which was stored in a −80° C. refrigerator was streaked on a trypticase soy agar plate (TSA), and the plate was incubated in a 37° C. incubator overnight. On the day of the experiment, the monoclonal bacterial was suspended in physiological saline and the turbidity of which was adjusted to 0.5 McFarland standard, corresponding to 1×10^8 CFU/ml. This suspension was diluted 100-fold to 1×10^6 CFU/mL with caton-adjusted Mueller-Hnton broth (CAMHB), which was used as an inoculation fluid.
(§4) 5) a 96-U plate was used as a test plate. Firstly, adding 98 μL CAMHB to each well of the test plate and transferring 2 μL solution in the mother plate to the test plate. 100 μL inoculation fluid was added to each well of the test plate.
(§5) 6) The test plate was incubated at 37° C. for 20 hours.
(§6) The above-mentioned method was also used to determine the antibacterial activity of the test compound or the antibiotic when used alone.

[2] = system: K. pneumoniae ATCC BAA-1899 (KPC); assay: as above; type: cell-based; conditions: Klebsiella pneumoniae, ATCCBAA1899, 37° C. 20 hours, read-out: minimum inhibitory concentration, used alone
Method: as §1, §2, §3, §4, §5, §6

[3] = system: K. pneumoniae ATCC-700603 (SHV-18); assay: as above; type: cell-based; conditions: Klebsiella pneumoniae, ATCC700603, 37° C. 20 hours, read-out: minimum inhibitory concentration, used alone
Method: as §1, §2, §3, §4, §5, §6

[4] = system: K. pneumoniae ATCC 51504 (TEM-10); assay: as above; type: cell-based; conditions: Klebsiella pneumoniae, ATCC51504, 37° C. 20 hours, read-out: minimum inhibitory concentration, used alone
Method: as §1, §2, §3, §4, §5, §6

[5] = system: K. pneumoniae ATCC BAA-205 (TEM-1/SHV-1/SHV-12); assay: as above; type: cell-based; conditions: Klebsiella pneumoniae, ATCCBAA205, 37° C. 20 hours, read-out: minimum inhibitory concentration, used alone
Method: as §1, §2, §3, §4, §5, §6

[6] = system: K. pneumoniae ATCC 51503 (TEM-10/12); assay: as above; type: cell-based; conditions: Klebsiella pneumoniae, ATCC51503, 37° C. 20 hours, read-out: minimum inhibitory concentration, used alone
Method: as §1, §2, §3, §4, §5, §6

[7] = system: K. pneumoniae ATCC BAA-1144 (AmpC); assay: as above; type: cell-based; conditions: Klebsiella pneumoniae, ATCCBAA1144, 37° C. 20 hours, read-out: minimum inhibitory concentration, used alone
Method: as §1, §2, §3, §4, §5, §6

[8] = system: K. pneumoniae ATCC BAA-1705 (KPC); assay: as above; type: cell-based; conditions: Klebsiella pneumoniae, ATCCBAA1705, 37° C. 20 hours, read-out: minimum inhibitory concentration, used alone
Method: as §1, §2, §3, §4, §5, §6

[9] = system: K. pneumoniae ATCC BAA-1898 (KPC); assay: as above; type: cell-based; conditions: Klebsiella pneumoniae, ATCCBAA1898, 37° C. 20 hours, read-out: minimum inhibitory concentration, used alone
Method: as §1, §2, §3, §4, §5, §6

[10] = system: K. pneumoniae ATCC BAA-2472 (NDM-1); assay: as above; type: cell-based; conditions: Klebsiella pneumoniae, ATCCBAA2472, 37° C. 20 hours, read-out: minimum inhibitory concentration, used alone
Method: as §1, §2, §3, §4, §5, §6

[11] = system: E. cloacae ATCC BAA-1143 (AmpC); assay: as above; type: cell-based; conditions: Enterobacter cloacae, ATCCBAA1143, 37° C. 20 hours, read-out: minimum inhibitory concentration, used alone
Method: as §1, §2, §3, §4, §5, §6

[12] = system: K. pneumoniae ATCC BAA-2524 (OXA-48); assay: as above; type: cell-based; conditions: Klebsiella pneumoniae, ATCCBAA2524, 37° C. 20 hours, read-out: minimum inhibitory concentration, used alone
Method: as §1, §2, §3, §4, §5, §6

[13] = system: E. coli ATCC BAA-2523 (OXA-48); assay: as above; type: cell-based; conditions: Escherichia coli, ATCCBAA2523, 37° C. 20 hours, read-out: minimum inhibitory concentration, used alone
Method: as §1, §2, §3, §4, §5, §6

[14] = system: Klebsiella pneumoniae (ATCC BAA-1705, KPC-2); assay: Mouse lung infection model; type: in vivo, CD-1 mice; conditions: ip, combined with ceftazidime
Method: Female CD-1 mice of about 7 weeks old, weighing 26-28 g; cyclophosphamide was injected at a dose of 150 mg/kg 4 days before infection, and further 100 mg/kg 1 day before infection; the bacteria infected was Klebsiella pneumoniae (ATCC BAA-1705, KPC-2). Compound 1 and the reference compound OP-0595 were synthesized in the laboratory.
Female CD-1 mice were infected with Klebsiella pneumoniae by intranasal instillation. Each mouse was instilled with 50 μL bacterial fluid through nasal cavity at a dose of 3.14E+07 CFU per mouse. At 2 h, 4 h, 6 h and 8 h after infection, each group of mice were treated with a corresponding compound or combined compounds by intraperitoneal injection.
At 10 h after infection, the mice in group 1, 2 and 3 were euthanized, and the lung was taken out and placed in a 50 mL centrifuge tube containing 10 mL sterile normal saline, the tube was placed on wet ice and transferred to BSL-2 laboratory for CFU counting. At 20 h after infection, the mice in group 4, 5 and 6 were euthanized and treated according to the same procedure.
The lungs were ground with an IKA T10 homogenizer (the maximum speed was 20S, repeated once). […] After 24 hours, the plate was taken out and the number of single colonies grown in each homogenate with a gradient dilution, and the amount of bacterial load in the lung of each mouse was calculated.

Work on `N=C(N)NOCCONC(=O)[C@@H]1CC[C@@H]2CN1C(=O)N2OS(=O)(=O)O` [Compound 1] yielded an MIC [1] of over 128 µg/mL, an MIC [2] of over 128 µg/mL and an MIC [3] of over 128 µg/mL. The MIC [4] was over 128 µg/mL, the MIC [5] was 128 µg/mL and the MIC [6] was over 128 µg/mL. The MIC [7] was 128 µg/mL, the MIC [8] was 128 µg/mL and the MIC [9] was over 128 µg/mL. The MIC [10] was over 128 µg/mL, the MIC [11] was 16 µg/mL and the MIC [12] was over 128 µg/mL. For the same compound, the MIC [13] was 8 µg/mL, the “reduction of the amount of bacterial load in the lung compared with the reference group of OP-0595” value ([14]; female CD-1 mice, K. pneumoniae ATCC BAA-1705 (KPC-2), 25/6.25 mpk and 50/12.5 mpk) was 0.5-1.5 logs and the “potency compared with reference compound OP-0595” value ([14]; mouse lung infection model) was “significantly more potent”.

— patent US10738051B2, “β-lactamase inhibitors” (priority 2016, dated 2020)
